From patent publication US11959083B2, “Immunosuppression-reverting oligonucleotides inhibiting the expression of CD39” (Secarna Pharmaceuticals GmbH & Co. KG, priority 2016, dated 2024)
l = locked nucleic acid (LNA); d = 2'-deoxy (DNA)

Tests used:
hCD39 = target: T1, hCD39 (Homo sapiens, UniProt P49961); assay: ATP degradation in JIYOYE cells after hCD39 knockdown (ATP Bioluminescence Assay); type: cell-based; details: for Relative ATP levels in supernatants of JIYOYE cells 30 minutes after addition of ATP (vs. Medium control): 5 μM oligonucleotide 6 days or 20 μM ARL67156 1 h, 2 μM ATP added
T1 construct: endogenous in cells; host or cells: JIYOYE cells
T1 sequence (P49961 1-510): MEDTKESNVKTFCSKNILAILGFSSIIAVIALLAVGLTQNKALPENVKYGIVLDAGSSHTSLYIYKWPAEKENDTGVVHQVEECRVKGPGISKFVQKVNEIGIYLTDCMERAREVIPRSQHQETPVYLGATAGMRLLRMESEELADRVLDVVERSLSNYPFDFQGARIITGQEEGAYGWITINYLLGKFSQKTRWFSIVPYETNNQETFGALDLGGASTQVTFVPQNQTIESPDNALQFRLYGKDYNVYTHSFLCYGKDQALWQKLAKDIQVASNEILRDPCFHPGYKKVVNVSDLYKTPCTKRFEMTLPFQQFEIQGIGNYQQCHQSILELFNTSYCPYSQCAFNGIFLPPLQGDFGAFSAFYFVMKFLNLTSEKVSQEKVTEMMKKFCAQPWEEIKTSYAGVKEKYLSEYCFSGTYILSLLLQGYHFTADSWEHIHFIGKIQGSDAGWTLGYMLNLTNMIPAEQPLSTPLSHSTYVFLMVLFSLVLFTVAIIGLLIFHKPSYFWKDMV
Description: FIG. 10A-10C depict effects of hCD39 knockdown on viability and ATP concentration in JIYOYE cells. JIYOYE cells were treated with the indicated antisense oligonucleotide A04040H (SEQ ID No.3) or neg1 for 6 days in total at 5 μM. Medium was replaced with fresh oligonucleotide-containing medium after 3 days and hCD39 protein knockdown efficacy was analyzed on day 6 by flow cytometry. Residual hCD39 expression and viability of oligonucleotide-treated cells is depicted compared to untreated cells (FIG. 10A-10B). After 6 days, 20 μM of the CD39 small molecular inhibitor ARL67156 trisodium salt was added to no ASO treated cells and incubated for 1 h at 37° C. Then, 2 μM of ATP was added to cells or cell culture medium without cells from each condition and ATP concentration of cell supernatants or cell culture medium was determined after 30 min using the ATP Bioluminescence Assay Kit (Roche) (FIG. 10C).
Adenosine is one major immunosuppressive molecule generated during ATP degradation by hCD39. ATP can be detected by an ATP Bioluminescence Assay (ATP Bioluminescence Assay Kit CLS II; Roche). JIYOYE cells were treated with 5 μM antisense oligonucleotide A04040H (SEQ ID No. 3) or the negative control oligonucleotide neg1 for 6 days (3+3). After 3 days, RPMI-1640 medium was replaced with fresh RPMI-1640 medium containing 5 μM of oligonucleotide. Protein knockdown efficacy (FIG. 10A) and viability (FIG. 10B) were analyzed after 6 days by flow cytometry. […] The same day, cells that were not treated with any antisense oligonucleotide were incubated for 1 hr at 37° C. with 20 μM of the CD39 small molecular inhibitor ARL67156 trisodium salt (TOCRIS). Then, 2 μM of ATP was added to cells or cell culture medium without cells derived from each condition and ATP concentration was measured in the cell supernatants or in cell culture medium after 30 min. […] Table 14 presents the effect of hCD39 knockdown on relative ATP levels in the cell culture supernatants of JIYOYE cells: […]

mCD39 mRNA = mCD39 mRNA knockdown efficacy screen in A20 cells (single dose, gymnotic delivery, QuantiGene Singleplex); type: cell-based, mouse; details: 10 μM, three days, normalized to HPRT1
Description: FIG. 14-1 and 14-2 show mCD39 mRNA knockdown efficacy of mCD39 antisense oligonucleotides in the murine cancer cell line A20 (mouse B cell lymphoma). A20 cells were treated with a single dose of 10 μM of the respective antisense oligonucleotide. As negative control, cells were treated with neg1, an antisense oligonucleotide having the sequence CGTTTAGGCTATGTACTT (SEQ ID NO:99). Residual mCD39 mRNA expression relative to untreated cells is depicted. Expression values were normalized to expression of the housekeeping gene HPRT1.
In order to analyze the efficacy of mCD39 antisense oligonucleotides with regard to the knockdown of mCD39 mRNA expression in a cancer cell line, A20 (mouse B cell lymphoma, ATCC) cells were treated with a single dose (concentration: 10 μM without addition of any transfection reagent; this process is called gymnotic delivery) of the respective antisense oligonucleotide as indicated in FIG. 14. As control, cells were treated with neg1, an antisense oligonucleotide having the sequence CGTTTAGGCTATGTACTT (SEQ ID NO:99). mCD39 and HPRT1 mRNA expression was analyzed after three days using the QuantiGene Singleplex assay (Affymetrix) and mCD39 expression values were normalized to HPRT1 expression values.

[1] = JIYOYE cells, 5 μM, 6 days, 2 μM ATP, 30 min

Substance | Relative ATP levels in supernatants of JIYOYE cells 30 minutes after addition of ATP (vs. Medium control) (hCD39) | ATP concentration compared to cells treated with ARL67156 (hCD39; [1]) [×] | ATP concentration compared to cells treated with neg 1 (hCD39; [1]) | ATP degradation efficacy (hCD39; [1]) | Relative mCD39 mRNA expression (compared to non-treated cells) (mCD39 mRNA)
+G*+T*+T*T*G*T*G*T*G*A*G*A*G*C*+T*+T (antisense GTTTGTGTGAGAGCTT; sugars from the 5' end l3 d11 l2, all phosphorothioate, methylation of C not given here) [A04040H] | 0.76 | 2 | about 4 × | nearly abolished | –
+C*+G*+T*T*T*A*G*G*C*T*A*T*G*T*A*+C*+T*+T (CGTTTAGGCTATGTACTT; chemistry not fully specified) [neg1, negative control antisense oligonucleotide not hybridizing with CD39, described in WO2014154843 A1, reference compound] | 0.19 | – | – | – | 0.67
